Test results as given in publication PMC8041276 (ACS Chemical Neuroscience, 2021).
Like-named read-outs stand apart in the source and are kept apart here.

Key:
[1] = target: T1, 5-HT6R (Homo sapiens, UniProt P50406); assay: [3H]-LSD radioligand binding assay, HEK293 cells stably expressing human 5-HT6R; parameters: expressed in transfected cells; conditions: mean of three independent experiments
Method: Final compounds were evaluated in the [^3H]-LSD binding assay using HEK293 cells with stable expression of human 5-HT6R. […] Because the fluorine atom might affect the affinity at target protein as well as physicochemical and pharmacokinetic properties of compound,[22] fluorine substitution at the 2-phenyl ring was applied. […] The analysis of the binding mode of 18 and 28 (Figure 2A) confirmed that the 2-phenyl moiety is placed in the hydrophobic cavity between transmembrane domains (TMs) 4–6.
(§1) All experiments were carried out according to the previously published procedures.[41]−[43] HEK293 cells stably expressing human 5-HT1A, 5-HT6, 5-HT7b, and D2L receptors (prepared with the use of Lipofectamine 2000) or CHO-K1 cells with plasmid containing the sequence coding for the human serotonin 5-HT2A receptor (PerkinElmer) were maintained at 37 °C in a humidified atmosphere containing 5% CO2 and grown in Dulbecco’s modified Eagle’s medium containing 10% dialyzed fetal bovine serum and 500 μg/mL G418 sulfate. For membrane preparation, cells were cultured in 150 cm^2 flasks, grown to 90% confluence, washed twice with prewarmed to 37 °C phosphate buffered saline (PBS), and centrifuged (200g) in PBS containing 0.1 mM EDTA and 1 mM dithiothreitol. Prior to membrane preparation, pellets were stored at −80 °C. Cell pellets were thawed and homogenized in 10 volumes of assay buffer using an Ultra Turrax tissue homogenizer and centrifuged twice at 35 000g for 15 min at 4 °C, with incubation for 15 min at 37 °C between the centrifugations. The composition of the assay buffers was experimentally selected to achieve the maximum signal window (more details in Supporting Information). All assays were carried out in a total volume of 200 μL in 96-well plates for 1 h at 37 °C except 5-HT1AR and 5-HT2AR which were incubated at room temperature and 27 °C, respectively. The process of equilibration was terminated by rapid filtration through Unifilter plates with a 96-well cell harvester, and radioactivity retained on the filters was quantified on a Microbeta plate reader (PerkinElmer, USA). For displacement studies the assay samples contained the following as radioligands (PerkinElmer, USA): 2.5 nM [^3H]-8-OH-DPAT (135.2 Ci/mmol) for 5-HT1AR; 1 nM [^3H]-ketanserin (53.4 Ci/mmol) for 5-HT2AR; 2 nM [^3H]-LSD (83.6 Ci/mmol) for 5-HT6R; 0.8 nM [^3H]-5-CT (39.2 Ci/mmol) for 5-HT7R or 2.5 nM [^3H]-raclopride (76.0 Ci/mmol) for D2LR. Nonspecific binding was defined in the presence of 10 μM 5-HT in 5-HT1AR and 5-HT7R binding experiments, whereas 20 μM mianserin, 10 μM methiothepine, and 10 μM haloperidol were used in 5-HT2AR, 5-HT6R, and D2LR assays, respectively. Each compound was tested in triplicate at seven concentrations (10^–10–10^–4 M). The inhibition constants (Ki) were calculated from the Cheng–Prusoff equation.[44]

[2] = target: T1, 5-HT6R; assay: Inhibition of 5-CT-stimulated cAMP production in 1321N1 cells; assay type: cell-based; parameters: expressed in transfected cells; conditions: antagonism of 5-CT (1000 nM)-stimulated cAMP
Method: The effect of compounds 18, 22, 27, and 28 on adenylate cyclase was examined in 1321N1 cells expressing the 5-HT6R.
The properties of compounds 18, 22, 27, 28 to inhibit cAMP production induced by 5-CT (1000 nM), a 5-HT6R agonist, were evaluated. Compounds were tested in triplicate at eight concentrations (10^–11–10^–4 M). The level of cAMP was measured using frozen recombinant 1321N1 cells expressing the human serotonin 5-HT6R (PerkinElmer). Total cAMP was measured using the LANCE cAMP detection kit (PerkinElmer), according to the manufacturer’s recommendations. For quantification of cAMP levels, 2000 cells/well (5 μL) were incubated with a mixture of compounds (5 μL) for 30 min at room temperature in 384-well white opaque microtiter plate. After incubation, the reaction was stopped and cells were lysed by the addition of 10 μL of working solution (5 μL of Eu-cAMP and 5 μL of ULight-anti-cAMP) for 1 h at room temperature. Time-resolved fluorescence resonance energy transfer (TR-FRET) was detected by an Infinite M1000 Pro (Tecan) using instrument settings from LANCE cAMP detection kit manual. Kb values were calculated from Cheng–Prusoff equation specific for the analysis of functional inhibition curves: Kb = IC50/(1 + A/EC50) where A represents agonist concentration, IC50 the concentration of antagonist producing a 50% reduction in the response to agonist, and EC50 the agonist concentration which causes a half of the maximal response.[44]

[3] = target: T2, 5-HT7R (Homo sapiens, UniProt P34969); assay: [3H]-5-CT radioligand binding assay, HEK293 cells; conditions: mean of three experiments
T2 construct: expressed in transfected cells
T2 sequence (P34969 1-432): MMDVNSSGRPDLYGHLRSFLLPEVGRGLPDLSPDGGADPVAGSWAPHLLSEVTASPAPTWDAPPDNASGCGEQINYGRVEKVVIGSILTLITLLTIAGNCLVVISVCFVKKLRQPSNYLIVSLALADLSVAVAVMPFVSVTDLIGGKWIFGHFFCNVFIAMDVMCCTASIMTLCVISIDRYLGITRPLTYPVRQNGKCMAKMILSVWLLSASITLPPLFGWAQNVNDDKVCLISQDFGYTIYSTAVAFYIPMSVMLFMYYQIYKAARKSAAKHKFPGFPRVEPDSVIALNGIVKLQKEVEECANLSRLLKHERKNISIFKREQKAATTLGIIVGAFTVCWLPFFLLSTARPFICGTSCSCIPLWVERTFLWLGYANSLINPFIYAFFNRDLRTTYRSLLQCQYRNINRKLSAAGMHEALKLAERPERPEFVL
Method: as §1

[4] = target: T3, 5-HT2AR (Homo sapiens, UniProt P28223); assay: [3H]-ketanserin radioligand binding assay, CHO-K1 cells; conditions: mean of three experiments
T3 construct: host or cells: CHO-K1
T3 sequence (P28223 whole entry): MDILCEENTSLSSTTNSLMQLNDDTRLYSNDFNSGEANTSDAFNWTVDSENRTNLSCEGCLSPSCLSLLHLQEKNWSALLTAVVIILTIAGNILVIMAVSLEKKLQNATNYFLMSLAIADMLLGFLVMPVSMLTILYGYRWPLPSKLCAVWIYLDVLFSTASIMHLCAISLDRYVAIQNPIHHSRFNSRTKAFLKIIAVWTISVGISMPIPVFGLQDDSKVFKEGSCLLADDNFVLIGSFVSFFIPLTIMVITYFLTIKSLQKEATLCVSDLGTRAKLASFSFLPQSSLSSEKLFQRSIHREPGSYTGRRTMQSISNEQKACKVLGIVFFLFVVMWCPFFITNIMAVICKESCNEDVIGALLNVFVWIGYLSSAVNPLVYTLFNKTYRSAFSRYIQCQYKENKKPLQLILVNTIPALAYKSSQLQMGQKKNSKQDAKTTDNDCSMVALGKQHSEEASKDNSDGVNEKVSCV

[5] = target: T1, 5-HT6R; assay: Basal cAMP production (constitutive Gs signaling) in NG108-15 cells transiently expressing 5-HT6R, CAMYEL BRET; assay type: cell-based; parameters: expressed in transfected cells; host or cells: NG108-15 (transient, Lipofectamine 2000, cotransfected with the CAMYEL sensor); conditions: for functional profile: 5-HT6R-dependent Gs signaling, NG108-15 cells; for IC50: decrease of basal cAMP, NG108-15 cells transiently expressing 5-HT6R
Method: NG108-15 cells were grown in Dulbecco’s modified Eagle’s medium (DMEM) supplemented with 10% dialyzed fetal calf serum, 2% hypoxanthine/aminopterin/thymidine (Life Technologies), and antibiotics. cAMP measurement was performed in cells transiently expressing 5-HT6R using the bioluminescence resonance energy transfer (BRET) sensor for cAMP, CAMYEL (cAMP sensor using YFP-Epac-RLuc).[45] NG108-15 cells were cotransfected in suspension with 5-HT6R (0.5 μg DNA/million cells) and CAMYEL constructs (1 μg DNA/million cells), using Lipofectamine 2000 according to the manufacturer’s protocol, and plated in white 96-well plates (Greiner) at a density of 50 000 cells per well. […] Coelanterazine H (Molecular Probes) was added at a final concentration of 5 μM and left at room temperature for 5 min. BRET was measured using a Mithras LB 940 plate reader (Berthold Technologies).

[6] = target: T4, D2R (Homo sapiens, UniProt P14416); assay: [3H]-raclopride radioligand binding assay, HEK293 cells; conditions: mean of three experiments
T4 construct: expressed in transfected cells
T4 sequence (P14416 whole entry): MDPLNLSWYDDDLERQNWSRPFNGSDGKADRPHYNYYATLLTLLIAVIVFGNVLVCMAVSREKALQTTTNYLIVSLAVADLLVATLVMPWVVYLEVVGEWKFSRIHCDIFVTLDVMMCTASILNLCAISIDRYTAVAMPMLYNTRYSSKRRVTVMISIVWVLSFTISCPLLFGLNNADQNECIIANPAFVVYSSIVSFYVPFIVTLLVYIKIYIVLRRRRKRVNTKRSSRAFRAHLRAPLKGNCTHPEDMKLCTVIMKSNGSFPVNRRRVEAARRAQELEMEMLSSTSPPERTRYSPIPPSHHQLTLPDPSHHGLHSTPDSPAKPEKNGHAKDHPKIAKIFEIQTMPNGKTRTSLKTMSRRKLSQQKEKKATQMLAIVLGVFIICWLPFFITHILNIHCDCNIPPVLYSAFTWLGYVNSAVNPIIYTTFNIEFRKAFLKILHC
Method: as §1

[7] = target: T5, 5-HT1AR (Homo sapiens, UniProt P08908); assay: [3H]-8-OH-DPAT radioligand binding assay, HEK293 cells; conditions: mean of three experiments
T5 construct: expressed in transfected cells
T5 sequence (P08908 1-422): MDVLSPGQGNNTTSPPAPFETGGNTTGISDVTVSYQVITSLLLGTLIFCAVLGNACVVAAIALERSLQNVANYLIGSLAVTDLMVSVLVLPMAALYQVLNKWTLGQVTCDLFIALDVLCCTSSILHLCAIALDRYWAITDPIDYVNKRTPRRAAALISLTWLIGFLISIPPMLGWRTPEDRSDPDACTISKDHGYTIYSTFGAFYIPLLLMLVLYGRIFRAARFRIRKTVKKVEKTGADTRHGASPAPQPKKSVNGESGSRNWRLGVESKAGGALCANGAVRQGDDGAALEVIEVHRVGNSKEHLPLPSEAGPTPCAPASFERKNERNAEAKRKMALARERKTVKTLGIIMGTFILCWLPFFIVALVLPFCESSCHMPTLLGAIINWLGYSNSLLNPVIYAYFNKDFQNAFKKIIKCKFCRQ
Method: as §1

[8] = target: T1, 5-HT6R; parameters: expressed in transfected cells; conditions: cited from earlier work

T1 sequence (P50406 whole entry, the tested form may be a part): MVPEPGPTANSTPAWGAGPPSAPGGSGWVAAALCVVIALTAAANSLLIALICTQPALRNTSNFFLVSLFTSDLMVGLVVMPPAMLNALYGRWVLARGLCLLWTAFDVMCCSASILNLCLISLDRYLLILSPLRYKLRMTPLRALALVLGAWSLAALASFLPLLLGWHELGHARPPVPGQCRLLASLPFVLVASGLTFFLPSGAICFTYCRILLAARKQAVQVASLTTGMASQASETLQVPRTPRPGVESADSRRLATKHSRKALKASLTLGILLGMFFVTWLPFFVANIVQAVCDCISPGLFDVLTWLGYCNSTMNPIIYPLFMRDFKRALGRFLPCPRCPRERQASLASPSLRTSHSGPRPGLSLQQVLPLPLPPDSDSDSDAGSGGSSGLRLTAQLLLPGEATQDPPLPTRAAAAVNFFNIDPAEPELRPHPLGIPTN

SMILES	Ki [1] [nM]	further results
O=C(N[C@@H]1CCNC1)c1ccn(S(=O)(=O)c2ccccc2)c1-c1ccccc1 [Compound 7]	208	
Cc1ccccc1S(=O)(=O)n1ccc(C(=O)N[C@@H]2CCNC2)c1-c1ccccc1 [Compound 9]	324	
O=C(N[C@@H]1CCNC1)c1ccn(S(=O)(=O)c2ccccc2Cl)c1-c1ccccc1 [Compound 10]	179	
O=C(N[C@@H]1CCNC1)c1ccn(S(=O)(=O)c2cccc(C(F)(F)F)c2)c1-c1ccccc1 [Compound 13]	159	
O=C(N[C@H]1CCNC1)c1ccn(S(=O)(=O)c2cccc(Cl)c2)c1-c1ccccc1 [Compound 18, (S)-2-Phenyl-1-[(3-chlorophenyl)sulfonyl]-N-(pyrrolidin-3-yl)-1H-pyrrole-3-carboxamide]	25	Kb [2]: 35 nM; Ki [3]: 65500 nM; Ki [4]: 14600 nM; functional profile [5]: inverse agonist; IC50 [5]: 170 nM; Ki [6]: 6840 nM; Ki [7]: 1370 nM
O=C(N[C@H]1CCNC1)c1ccn(S(=O)(=O)c2cccs2)c1-c1ccccc1 [Compound 19]	162	
Cn1cc(S(=O)(=O)n2ccc(C(=O)N[C@H]3CCNC3)c2-c2ccccc2)cn1 [Compound 20]	1460	
O=C(N[C@H]1CCNC1)c1ccn(S(=O)(=O)c2cccc(Cl)c2)c1-c1cccc(F)c1 [Compound 22, (S)-2-(3-Fluorophenyl)-1-[(3-chlorophenyl)sulfonyl)-N-(pyrrolidin-3-yl)-1H-pyrrole-3-carboxamide]	28	Kb [2]: 6 nM; Ki [3]: 7060 nM; Ki [4]: 15200 nM; functional profile [5]: inverse agonist; IC50 [5]: 306 nM; Ki [6]: 6660 nM; Ki [7]: 65700 nM
O=C(N[C@@H]1CCNC1)c1ccn(S(=O)(=O)c2ccc(F)cc2)c1-c1cccc(F)c1 [Compound 23]	853	
COc1cccc(S(=O)(=O)n2ccc(C(=O)N[C@@H]3CCNC3)c2-c2ccc(F)cc2)c1 [Compound 25]	350	
O=C(N[C@@H]1CCNC1)c1ccn(S(=O)(=O)c2ccc(F)cc2)c1-c1ccc(F)cc1 [Compound 29]	2580	
O=C(N[C@H]1CCNC1)c1ccn(S(=O)(=O)c2ccc(F)cc2)c1-c1ccc(F)cc1 [Compound 30]	638	
O=C(N[C@H]1CCNC1)c1ccn(S(=O)(=O)c2cccc3ccccc23)c1-c1ccc(F)cc1 [Compound 31]	391	
O=C(N[C@H]1CCNC1)c1ccn(S(=O)(=O)c2cccc3cccnc23)c1-c1ccc(F)cc1 [Compound 32]	1210	
O=S(=O)(c1ccccc1)n1ccc2c(NC3CCNC3)nc3ccccc3c21 (stereo not drawn) [I]		Ki [8]: 10 nM

Further lines, with some results ahead:

Ki [1] [nM]	SMILES	further results
106	O=C(N[C@H]1CCNC1)c1ccn(S(=O)(=O)c2ccccc2)c1-c1ccccc1 [Compound 8]	
96	Cc1cccc(S(=O)(=O)n2ccc(C(=O)N[C@@H]3CCNC3)c2-c2ccccc2)c1 [Compound 11]	
88	O=C(N[C@@H]1CCNC1)c1ccn(S(=O)(=O)c2cccc(F)c2)c1-c1ccccc1 [Compound 12]	
38	O=C(N[C@H]1CCNC1)c1ccn(S(=O)(=O)c2cccc(C(F)(F)F)c2)c1-c1ccccc1 [Compound 14]	
52	O=C(N[C@@H]1CCNC1)c1ccn(S(=O)(=O)c2cccc(OC(F)(F)F)c2)c1-c1ccccc1 [Compound 15]	
31	O=C(N[C@H]1CCNC1)c1ccn(S(=O)(=O)c2cccc(OC(F)(F)F)c2)c1-c1ccccc1 [Compound 16]	
35	O=C(N[C@@H]1CCNC1)c1ccn(S(=O)(=O)c2cccc(Cl)c2)c1-c1ccccc1 [Compound 17]	
98	O=C(N[C@@H]1CCNC1)c1ccn(S(=O)(=O)c2cccc(Cl)c2)c1-c1cccc(F)c1 [Compound 21]	
102	O=C(N[C@@H]1CCNC1)c1ccn(S(=O)(=O)c2ccccc2)c1-c1ccc(F)cc1 [Compound 24]	
56	O=C(N[C@@H]1CCNC1)c1ccn(S(=O)(=O)c2cccc(F)c2)c1-c1ccc(F)cc1 [Compound 26]	
